The record followed here is patent US11103457B2, “Pharmaceutical compositions comprising safinamide” (Zambon S.P.A., priority 2017, dated 2021).

This series is described as follows: Sensory evaluation of the active ingredient safinamide (taste and irritation in the mouth). The following applies: five minutes after rinsing with drinking water; 2 subjects. It counts as in vivo. On the procedure: In order to verify the unpleasant taste and irritation sensation of the active pharmaceutical ingredient, safinamide methanesulphonate, a test was performed in vivo by using an amount of safinamide methanesulfonate equal to 100 mg of safinamide base. Sensory evaluation was carried out by recruiting 2 subjects, who were asked to put said amount in the mouth by avoiding swallowing the mass. At the end of the test, participants were asked to rinse the mouth with plenty of drinking water; five minutes later their tongue and palate resulted to be still sore.

The structures appear in SMILES notation.

As to `C[C@H](NCc1ccc(OCc2cccc(F)c2)cc1)C(N)=O` [safinamide methanesulfonate, (2S)-2-[[4-[(3-fluorophenyl)methoxy]phenyl]methylamino]propanamide], the “tongue and palate after rinsing the mouth” value is “still sore”.
